Measurements from paper PMC9989926, “Zebrafish and medaka T1R (taste receptor type 1) proteins mediate highly sensitive recognition of L‐proline” (FEBS Open Bio, 2023).

Tests used:
mfT1R2b/mfT1R3 = molecular target: T1, mfT1R2b/mfT1R3 (Oryzias latipes, UniProt Q2MHK2+Q2MHK4); assay: FLIPR Calcium […] cell-based calcium assay, FlexStation […]
T1 construct: gene TAS1R2b; entire coding regions, stably co-expressed with chimeric G-protein G16gust44 in Flp-In 293 cells; heterodimer; with Taste receptor type 1 member 3

mfT1R2a/mfT1R3 = molecular target: T2, mfT1R2a/mfT1R3 (Oryzias latipes, UniProt Q2MHK2+Q2MHK5); assay: as above
T2 construct: gene TAS1R2a; entire coding regions, stably co-expressed with chimeric G-protein G16gust44 in Flp-In 293 cells; heterodimer; with Taste receptor type 1 member 3

zfT1R2a/zfT1R3 = molecular target: T3, zfT1R2a/zfT1R3 (Danio rerio, UniProt Q2MHK9+Q2MHL1, Q2MHK9:Y247H); assay: as above
T3 construct: gene tas1r2.1; entire coding regions, stably co-expressed with chimeric G-protein G16gust44 in Flp-In 293 cells; heterodimer; T1R3 clone Y247H (C741T); with Taste receptor type 1 member 3
T3 sequence (Q2MHL1 26-825): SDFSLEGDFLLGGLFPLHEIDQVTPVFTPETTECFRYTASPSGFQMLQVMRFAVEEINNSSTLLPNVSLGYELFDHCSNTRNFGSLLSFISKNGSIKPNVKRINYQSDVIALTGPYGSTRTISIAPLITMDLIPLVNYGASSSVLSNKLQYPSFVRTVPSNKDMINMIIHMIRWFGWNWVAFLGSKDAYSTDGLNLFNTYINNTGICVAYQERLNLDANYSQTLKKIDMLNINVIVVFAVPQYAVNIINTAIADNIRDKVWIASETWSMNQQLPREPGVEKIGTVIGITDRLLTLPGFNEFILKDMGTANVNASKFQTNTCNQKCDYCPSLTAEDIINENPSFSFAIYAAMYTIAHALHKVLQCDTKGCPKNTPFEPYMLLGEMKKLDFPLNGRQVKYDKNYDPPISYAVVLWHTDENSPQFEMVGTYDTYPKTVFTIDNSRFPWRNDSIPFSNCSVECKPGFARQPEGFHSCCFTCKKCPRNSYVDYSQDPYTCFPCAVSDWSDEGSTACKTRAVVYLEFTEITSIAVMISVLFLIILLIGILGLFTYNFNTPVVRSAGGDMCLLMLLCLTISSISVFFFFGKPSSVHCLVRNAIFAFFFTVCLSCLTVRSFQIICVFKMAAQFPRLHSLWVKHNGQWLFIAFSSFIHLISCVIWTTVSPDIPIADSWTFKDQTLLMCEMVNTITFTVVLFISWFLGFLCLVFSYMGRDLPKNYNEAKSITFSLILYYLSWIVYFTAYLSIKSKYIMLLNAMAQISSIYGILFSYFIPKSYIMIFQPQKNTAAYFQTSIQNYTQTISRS
T3 sequence (Q2MHK9 25-850 Y247H): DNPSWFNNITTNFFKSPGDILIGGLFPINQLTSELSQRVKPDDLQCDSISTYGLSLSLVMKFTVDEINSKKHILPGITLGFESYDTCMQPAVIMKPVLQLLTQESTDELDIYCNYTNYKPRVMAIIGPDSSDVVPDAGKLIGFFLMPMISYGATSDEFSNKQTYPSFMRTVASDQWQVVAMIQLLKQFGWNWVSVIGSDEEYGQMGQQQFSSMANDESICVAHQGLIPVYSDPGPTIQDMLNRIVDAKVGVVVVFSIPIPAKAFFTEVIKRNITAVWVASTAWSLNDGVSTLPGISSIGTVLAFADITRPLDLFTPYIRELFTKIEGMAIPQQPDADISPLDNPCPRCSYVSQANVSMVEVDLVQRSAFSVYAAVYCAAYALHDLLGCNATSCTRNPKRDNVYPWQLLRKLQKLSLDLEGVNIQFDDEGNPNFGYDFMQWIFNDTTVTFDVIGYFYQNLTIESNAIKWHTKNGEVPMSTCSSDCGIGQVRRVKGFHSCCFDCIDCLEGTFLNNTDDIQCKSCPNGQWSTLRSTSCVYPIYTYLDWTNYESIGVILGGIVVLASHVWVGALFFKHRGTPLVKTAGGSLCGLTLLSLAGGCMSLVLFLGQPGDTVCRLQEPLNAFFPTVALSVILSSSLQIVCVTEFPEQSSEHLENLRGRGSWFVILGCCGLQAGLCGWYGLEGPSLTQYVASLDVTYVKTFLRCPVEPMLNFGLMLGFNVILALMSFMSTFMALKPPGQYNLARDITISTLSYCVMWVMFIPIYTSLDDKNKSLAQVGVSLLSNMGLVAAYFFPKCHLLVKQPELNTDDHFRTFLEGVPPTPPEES

zfT1R2b/zfT1R3 = molecular target: T4, zfT1R2b/zfT1R3 (Danio rerio, UniProt A4PHQ8+Q2MHK9, Q2MHK9:Y247H); assay: as above
T4 construct: gene tas1r2.2; entire coding regions, stably co-expressed with chimeric G-protein G16gust44 in Flp-In 293 cells; heterodimer; T1R3 clone Y247H (C741T); with Taste receptor type 1 member 3
T4 sequence (A4PHQ8 18-823): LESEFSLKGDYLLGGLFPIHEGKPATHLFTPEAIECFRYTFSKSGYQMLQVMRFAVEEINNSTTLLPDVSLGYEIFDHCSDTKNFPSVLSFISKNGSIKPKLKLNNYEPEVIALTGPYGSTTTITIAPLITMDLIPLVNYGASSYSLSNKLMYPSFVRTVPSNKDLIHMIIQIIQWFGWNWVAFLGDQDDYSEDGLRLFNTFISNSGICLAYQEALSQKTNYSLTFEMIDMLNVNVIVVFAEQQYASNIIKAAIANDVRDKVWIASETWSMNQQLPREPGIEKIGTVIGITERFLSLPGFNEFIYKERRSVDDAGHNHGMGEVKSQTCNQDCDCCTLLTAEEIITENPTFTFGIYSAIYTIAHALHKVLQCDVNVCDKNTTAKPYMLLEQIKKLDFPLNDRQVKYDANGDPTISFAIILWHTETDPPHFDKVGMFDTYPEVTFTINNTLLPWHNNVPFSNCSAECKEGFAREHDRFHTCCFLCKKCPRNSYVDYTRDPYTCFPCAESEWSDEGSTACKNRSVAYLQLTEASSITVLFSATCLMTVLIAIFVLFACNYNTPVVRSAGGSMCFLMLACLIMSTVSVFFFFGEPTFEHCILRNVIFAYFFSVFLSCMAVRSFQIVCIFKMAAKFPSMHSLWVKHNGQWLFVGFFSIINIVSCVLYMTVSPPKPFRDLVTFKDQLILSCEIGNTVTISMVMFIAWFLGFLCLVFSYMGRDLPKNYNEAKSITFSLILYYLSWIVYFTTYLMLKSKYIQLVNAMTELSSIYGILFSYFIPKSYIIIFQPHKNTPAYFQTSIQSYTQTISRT
T4 sequence (Q2MHK9 25-850 Y247H): T3 sequence (Q2MHK9 25-850 Y247H)

mfT1R2c/mfT1R3 = molecular target: T5, mfT1R2c/mfT1R3 (Oryzias latipes, UniProt Q2MHK2+Q2MHK3, Q2MHK3:V394L); assay: cell-based
T5 construct: gene TAS1R2c
T5 sequence (Q2MHK2 entry or part of it): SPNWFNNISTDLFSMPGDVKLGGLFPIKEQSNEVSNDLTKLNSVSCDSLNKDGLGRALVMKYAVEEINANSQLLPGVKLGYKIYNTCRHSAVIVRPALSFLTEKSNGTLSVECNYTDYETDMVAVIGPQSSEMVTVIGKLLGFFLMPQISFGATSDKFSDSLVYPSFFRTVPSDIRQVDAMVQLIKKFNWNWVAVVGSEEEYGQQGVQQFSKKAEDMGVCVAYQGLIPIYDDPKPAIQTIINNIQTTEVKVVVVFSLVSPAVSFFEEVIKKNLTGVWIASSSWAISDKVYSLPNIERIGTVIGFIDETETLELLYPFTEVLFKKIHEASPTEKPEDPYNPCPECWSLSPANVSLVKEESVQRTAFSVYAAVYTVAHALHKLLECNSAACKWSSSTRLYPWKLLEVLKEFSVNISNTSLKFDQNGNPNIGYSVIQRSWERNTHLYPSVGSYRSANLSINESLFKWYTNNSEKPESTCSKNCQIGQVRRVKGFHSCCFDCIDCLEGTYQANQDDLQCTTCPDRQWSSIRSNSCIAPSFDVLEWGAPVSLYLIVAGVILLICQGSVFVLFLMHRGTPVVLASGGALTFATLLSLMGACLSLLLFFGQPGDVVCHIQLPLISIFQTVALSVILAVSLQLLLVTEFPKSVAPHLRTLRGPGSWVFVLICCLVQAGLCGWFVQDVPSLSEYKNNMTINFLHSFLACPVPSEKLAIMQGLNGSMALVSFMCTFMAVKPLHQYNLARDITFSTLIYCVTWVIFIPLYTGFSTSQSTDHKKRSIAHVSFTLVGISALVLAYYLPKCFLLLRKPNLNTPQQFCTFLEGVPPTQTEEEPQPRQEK
T5 sequence (Q2MHK3 entry or part of it V394L): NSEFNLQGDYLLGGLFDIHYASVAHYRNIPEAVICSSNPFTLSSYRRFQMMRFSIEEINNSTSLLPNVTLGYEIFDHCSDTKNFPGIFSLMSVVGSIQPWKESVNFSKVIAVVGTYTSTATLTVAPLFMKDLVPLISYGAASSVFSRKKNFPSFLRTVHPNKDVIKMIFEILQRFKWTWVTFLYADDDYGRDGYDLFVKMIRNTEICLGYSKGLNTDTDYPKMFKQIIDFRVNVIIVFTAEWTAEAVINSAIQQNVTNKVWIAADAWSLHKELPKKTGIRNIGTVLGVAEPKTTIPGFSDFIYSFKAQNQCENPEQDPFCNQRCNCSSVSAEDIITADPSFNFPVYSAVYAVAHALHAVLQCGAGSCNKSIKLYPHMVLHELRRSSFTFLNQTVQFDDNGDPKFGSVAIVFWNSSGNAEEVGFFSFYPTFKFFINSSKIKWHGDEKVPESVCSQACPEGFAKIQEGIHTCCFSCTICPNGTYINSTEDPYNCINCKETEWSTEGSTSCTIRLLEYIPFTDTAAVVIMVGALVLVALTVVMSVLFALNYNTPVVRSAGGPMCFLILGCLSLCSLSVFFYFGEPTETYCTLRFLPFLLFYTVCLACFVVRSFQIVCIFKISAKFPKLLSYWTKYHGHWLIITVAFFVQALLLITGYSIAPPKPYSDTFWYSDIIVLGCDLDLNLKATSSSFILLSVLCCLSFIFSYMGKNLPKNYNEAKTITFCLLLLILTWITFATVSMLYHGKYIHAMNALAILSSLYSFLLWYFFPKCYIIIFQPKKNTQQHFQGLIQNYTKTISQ

T1 sequence (Q2MHK4 entry or part of it): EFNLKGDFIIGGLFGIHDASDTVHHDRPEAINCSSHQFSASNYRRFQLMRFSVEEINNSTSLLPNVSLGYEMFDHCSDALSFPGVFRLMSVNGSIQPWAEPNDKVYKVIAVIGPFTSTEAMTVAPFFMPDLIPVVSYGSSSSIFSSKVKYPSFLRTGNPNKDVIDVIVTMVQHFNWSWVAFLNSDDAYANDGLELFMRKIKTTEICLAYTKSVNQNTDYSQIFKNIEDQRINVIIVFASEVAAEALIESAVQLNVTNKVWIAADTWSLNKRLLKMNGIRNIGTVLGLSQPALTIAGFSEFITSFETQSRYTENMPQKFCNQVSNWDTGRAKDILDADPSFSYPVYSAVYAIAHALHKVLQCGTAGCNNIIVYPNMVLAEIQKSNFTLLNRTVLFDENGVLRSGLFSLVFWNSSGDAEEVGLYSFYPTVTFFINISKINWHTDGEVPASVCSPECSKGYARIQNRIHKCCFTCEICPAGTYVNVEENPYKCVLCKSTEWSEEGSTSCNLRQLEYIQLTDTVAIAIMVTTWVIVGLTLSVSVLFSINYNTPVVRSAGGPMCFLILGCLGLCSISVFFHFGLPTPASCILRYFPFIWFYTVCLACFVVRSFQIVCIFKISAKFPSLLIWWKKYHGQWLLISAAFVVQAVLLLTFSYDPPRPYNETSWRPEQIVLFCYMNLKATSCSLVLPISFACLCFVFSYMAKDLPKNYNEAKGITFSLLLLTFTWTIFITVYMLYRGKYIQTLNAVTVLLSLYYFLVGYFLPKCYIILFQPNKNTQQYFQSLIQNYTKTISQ
T1 sequence (Q2MHK2 entry or part of it): as the sequence (Q2MHK2 entry or part of it) above
T2 sequence (Q2MHK2 entry or part of it): as above
T2 sequence (Q2MHK5 entry or part of it): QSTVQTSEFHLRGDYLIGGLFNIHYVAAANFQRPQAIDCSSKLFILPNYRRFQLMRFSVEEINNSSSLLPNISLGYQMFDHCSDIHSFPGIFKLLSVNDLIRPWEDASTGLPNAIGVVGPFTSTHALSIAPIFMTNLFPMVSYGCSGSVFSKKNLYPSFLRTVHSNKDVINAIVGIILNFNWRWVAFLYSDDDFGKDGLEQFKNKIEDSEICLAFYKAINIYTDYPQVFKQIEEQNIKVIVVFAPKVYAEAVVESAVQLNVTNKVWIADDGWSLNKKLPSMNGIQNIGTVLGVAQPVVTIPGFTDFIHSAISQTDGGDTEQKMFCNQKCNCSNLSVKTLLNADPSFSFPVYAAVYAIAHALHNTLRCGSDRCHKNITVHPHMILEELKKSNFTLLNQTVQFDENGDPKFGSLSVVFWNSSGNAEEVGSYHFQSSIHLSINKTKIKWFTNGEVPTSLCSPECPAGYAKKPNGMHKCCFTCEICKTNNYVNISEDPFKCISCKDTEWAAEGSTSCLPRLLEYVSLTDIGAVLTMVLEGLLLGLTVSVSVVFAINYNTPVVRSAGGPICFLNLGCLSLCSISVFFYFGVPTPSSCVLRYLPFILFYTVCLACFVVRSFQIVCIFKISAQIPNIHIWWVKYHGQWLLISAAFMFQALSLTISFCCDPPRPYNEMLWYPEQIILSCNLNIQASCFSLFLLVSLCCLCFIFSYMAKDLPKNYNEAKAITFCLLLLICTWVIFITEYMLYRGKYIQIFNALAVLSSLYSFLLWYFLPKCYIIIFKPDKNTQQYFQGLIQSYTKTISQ

EC50 (mfT1R2b/mfT1R3) [µM]	EC50 (mfT1R2a/mfT1R3) [µM]	EC50 (zfT1R2a/zfT1R3) [µM]	EC50 (zfT1R2b/zfT1R3) [µM]	EC50 (mfT1R2c/mfT1R3) [µM]	Structure (SMILES)
1750 ± 140	1230 ± 70	220 ± 18	2030 ± 150	–	C[C@H](N)C(=O)O [L-alanine]
–	58.8 ± 7.6	–	–	–	NC(=O)CC[C@H](N)C(=O)O [L-glutamine]
3050 ± 220	–	164 ± 36	1720 ± 350	4.43 ± 0.38	O=C(O)[C@@H]1CCCN1 [L-proline]
